Measurements from ChEMBL document CHEMBL1201862, “PubChem BioAssay data set” (2004).
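How tested: cells in 96-well plates exposed to compound for 48 hours at five concentrations. GI50 is the concentration that inhibits growth by half.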 Activity calls are given as the source filed them. Cut-off read from the data, not from the text of the source: active = GI50 up to about 1.1 µM and inactive = higher.

How the values were obtained:
Experiment in all cases: NCI anticancer screen, dose series, 48 h
[1] = tested on: DLD-1
[2] = tested on: A549
[3] = tested on: OVCAR-4
[4] = tested on: UACC-257
[5] = tested on: IGROV-1
[6] = tested on: UO-31
[7] = tested on: CAKI-1
[8] = tested on: NCI-H460
[9] = tested on: M14
[10] = tested on: SNB-75
[11] = tested on: SK-OV-3
[12] = tested on: SW-620
[13] = tested on: HOP-92
[14] = tested on: NCI-H226
[15] = tested on: ACHN
[16] = tested on: CCRF-CEM
[17] = tested on: KM12
[18] = tested on: EKVX
[19] = tested on: MDA-N
[20] = tested on: MCF7

Row | SMILES | GI50 [1] | GI50 [2] | GI50 [3] | GI50 [4] | GI50 [5] | GI50 [6] | GI50 [7] | GI50 [8] | GI50 [9] | GI50 [10] | GI50 [11] | GI50 [12] | GI50 [13] | GI50 [14] | GI50 [15] | GI50 [16] | GI50 [17] | GI50 [18] | GI50 [19] | GI50 [20]
1 | NNC(=O)CCC(=O)Nc1cc(Cl)c(Cl)cc1Cl | > 100 µM (inactive) | > 100 µM (inactive) | 51.5 µM (inactive) | > 100 µM (inactive) | > 100 µM (inactive) | > 100 µM (inactive) | > 100 µM (inactive) | > 100 µM (inactive) | > 100 µM (inactive) | 95.1 µM (inactive) | > 100 µM (inactive) | > 100 µM (inactive) | > 100 µM (inactive) | > 100 µM (inactive) | > 100 µM (inactive) | > 100 µM (inactive) | > 100 µM (inactive) | – | – | –
2 | Cc1ccc(/C=C/C(=O)c2sc(-c3nc(C)c(C(=O)/C=C/c4ccc(C)cc4)s3)nc2C)cc1 | > 100 µM (inactive) | > 100 µM (inactive) | – | > 100 µM (inactive) | > 100 µM (inactive) | > 100 µM (inactive) | > 100 µM (inactive) | > 100 µM (inactive) | – | 86.5 µM (inactive) | > 100 µM (inactive) | > 100 µM (inactive) | > 100 µM (inactive) | > 100 µM (inactive) | > 100 µM (inactive) | > 100 µM (inactive) | > 100 µM (inactive) | > 100 µM (inactive) | – | –
3 | C/C(CCc1ccccc1)=N\NC(N)=S | > 100 µM (inactive) | > 100 µM (inactive) | > 100 µM (inactive) | > 100 µM (inactive) | > 100 µM (inactive) | > 100 µM (inactive) | > 100 µM (inactive) | > 100 µM (inactive) | > 100 µM (inactive) | 76.4 µM (inactive) | > 100 µM (inactive) | > 100 µM (inactive) | > 100 µM (inactive) | > 100 µM (inactive) | > 100 µM (inactive) | 75.5 µM (inactive) | > 100 µM (inactive) | 72.4 µM (inactive) | – | –
4 | O=C(c1ccccc1)c1ccc(OCCOc2ccc(Nc3ccccc3)cc2)cc1 | 50.9 µM (inactive) | 64.3 µM (inactive) | 17.7 µM (inactive) | 65.8 µM (inactive) | 52.2 µM (inactive) | > 100 µM (inactive) | 47.3 µM (inactive) | 65.5 µM (inactive) | 49.5 µM (inactive) | 15.6 µM (inactive) | 22.9 µM (inactive) | > 100 µM (inactive) | 27.3 µM (inactive) | 33.6 µM (inactive) | 24.3 µM (inactive) | > 100 µM (inactive) | > 100 µM (inactive) | 74.8 µM (inactive) | – | –
5 | CN(CCO)c1nc(N)cc(=O)[nH]1 | > 100 µM (inactive) | > 100 µM (inactive) | – | > 100 µM (inactive) | > 100 µM (inactive) | > 100 µM (inactive) | > 100 µM (inactive) | > 100 µM (inactive) | > 100 µM (inactive) | 38.7 µM (inactive) | > 100 µM (inactive) | > 100 µM (inactive) | > 100 µM (inactive) | > 100 µM (inactive) | > 100 µM (inactive) | > 100 µM (inactive) | > 100 µM (inactive) | > 100 µM (inactive) | – | –
6 | Oc1ccc(-c2c3ccccc3c(-c3ccc(O)cc3)c3ccccc23)cc1 | > 100 µM (inactive) | > 100 µM (inactive) | > 100 µM (inactive) | > 100 µM (inactive) | > 100 µM (inactive) | > 100 µM (inactive) | > 100 µM (inactive) | > 100 µM (inactive) | > 100 µM (inactive) | 39.8 µM (inactive) | > 100 µM (inactive) | > 100 µM (inactive) | > 100 µM (inactive) | > 100 µM (inactive) | 89.9 µM (inactive) | > 100 µM (inactive) | > 100 µM (inactive) | > 100 µM (inactive) | – | –
7 | O=C(c1nc2ccccc2nc1O)C(O)c1ccccc1 (stereo unspecified) | > 100 µM (inactive) | 70.3 µM (inactive) | 95.3 µM (inactive) | > 100 µM (inactive) | > 100 µM (inactive) | 94.8 µM (inactive) | > 100 µM (inactive) | > 100 µM (inactive) | > 100 µM (inactive) | – | > 100 µM (inactive) | 86.9 µM (inactive) | 63.7 µM (inactive) | 76.7 µM (inactive) | 44.6 µM (inactive) | 32.7 µM (inactive) | 54.6 µM (inactive) | 64.6 µM (inactive) | – | –
8 | C/C(CC(=O)Nc1cccc(Cl)c1C)=N\NC(N)=S | > 100 µM (inactive) | > 100 µM (inactive) | – | > 100 µM (inactive) | > 100 µM (inactive) | > 100 µM (inactive) | – | > 100 µM (inactive) | > 100 µM (inactive) | > 100 µM (inactive) | > 100 µM (inactive) | > 100 µM (inactive) | 30.1 µM (inactive) | > 100 µM (inactive) | – | > 100 µM (inactive) | > 100 µM (inactive) | > 100 µM (inactive) | – | –
9 | COC1C2c3ccccc3C(C#N)(Cc3ccc4c(c32)OCO4)N1C(=O)c1ccccc1 (stereo unspecified) | 60.3 µM (inactive) | – | – | 26.1 µM (inactive) | 13 µM (inactive) | 31.7 µM (inactive) | – | 25.9 µM (inactive) | 26.6 µM (inactive) | 50.6 µM (inactive) | 35.3 µM (inactive) | 32.8 µM (inactive) | > 100 µM (inactive) | 12.5 µM (inactive) | 41.4 µM (inactive) | 25.4 µM (inactive) | 24.9 µM (inactive) | 45.8 µM (inactive) | – | –
10 | C[C@@H]1C[C@@H](O)[C@]2(O)O[C@@H]3C[C@@]4(C=O)[C@@H](CC[C@@H]5[C@@H]4CC[C@]4(C)[C@@H](C6=CC(=O)OC6)CC[C@]54O)C[C@H]3O[C@@H]2O1 [CALACTIN] | 0.012 µM (active) | 0.00439 µM (active) | 0.0222 µM (active) | 0.0213 µM (active) | 0.00962 µM (active) | 0.0171 µM (active) | 0.01 µM (active) | 0.00464 µM (active) | 0.0222 µM (active) | 0.0251 µM (active) | 0.0118 µM (active) | 0.0133 µM (active) | 0.0276 µM (active) | 0.0243 µM (active) | 0.00283 µM (active) | 0.00371 µM (active) | 0.0226 µM (active) | 0.0244 µM (active) | 0.0538 µM (active) | 0.0335 µM (active)
